Measurements taken from ChEMBL document CHEMBL1154382, “Preliminary SAR analysis of novel antiproliferative N(6),5'-bis-ureidoadenosine derivatives” (2009).

Legend:
Assay type in all cases: functional
T47D [1] = assay: Antiproliferative activity against human T47D cells at 10 uM assessed as cell growth inhibition relative to control; conditions: values are per cent of control
Malme-3M = assay: Antiproliferative activity against human MALME-3M cells at 10 uM assessed as cell growth inhibition relative to control; conditions: values are per cent of control
RXF 393 = assay: Antiproliferative activity against human RXF393 cells at 10 uM assessed as cell growth inhibition relative to control; conditions: values are per cent of control
HCT-15 = assay: Antiproliferative activity against human HCT15 cells at 10 uM assessed as cell growth inhibition relative to control; conditions: values are per cent of control
SN12C = assay: Antiproliferative activity against human SN12C cells at 10 uM assessed as cell growth inhibition relative to control; conditions: values are per cent of control
MCF7 [2] = assay: Antiproliferative activity against human MCF7 cells at 10 uM assessed as cell growth inhibition relative to control; conditions: values are per cent of control
A549 [3] = assay: Antiproliferative activity against human A549 cells
MOLT-4 = assay: Antiproliferative activity against human MOLT4 cells
UACC-62 [4] = assay: Antiproliferative activity against human UACC62 cells
786-0 [5] = assay: Antiproliferative activity against human 786-0 cells
SNB-75 = assay: Antiproliferative activity against human SNB75 cells
OVCAR-8 [6] = assay: Antiproliferative activity against human OVCAR8 cells
OVCAR-4 = assay: Antiproliferative activity against human OVCAR4 cells
M14 = assay: Antiproliferative activity against human M14 cells at 10 uM assessed as cell growth inhibition relative to control; conditions: values are per cent of control
MDA-MB-231 = assay: Antiproliferative activity against human MDA-MB-231 cells at 10 uM assessed as cell growth inhibition relative to control; conditions: values are per cent of control
ACHN = assay: Antiproliferative activity against human ACHN cells at 10 uM assessed as cell growth inhibition relative to control; conditions: values are per cent of control
U-251 [7] = assay: Antiproliferative activity against human U251 cells
SK-OV-3 = assay: Antiproliferative activity against human SKOV3 cells at 10 uM assessed as cell growth inhibition relative to control; conditions: values are per cent of control
HOP-62 = assay: Antiproliferative activity against human HOP62 cells at 10 uM assessed as cell growth inhibition relative to control; conditions: values are per cent of control
UACC-257 = assay: Antiproliferative activity against human UACC257 cells
SF-539 = assay: Antiproliferative activity against human SF539 cells
BT-549 = assay: Antiproliferative activity against human BT549 cells
T47D [8] = assay: Antiproliferative activity against human T47D cells
NCI-H226 = assay: Antiproliferative activity against human NCI-H226 cells at 10 uM assessed as cell growth inhibition relative to control; conditions: values are per cent of control
A498 = assay: Antiproliferative activity against human A498 cells
MDA-MB-435 = assay: Antiproliferative activity against human MDA-MB-435 cells
HCT-116 [9] = assay: Antiproliferative activity against human HCT116 cells at 10 uM assessed as cell growth inhibition relative to control; conditions: values are per cent of control
[10] = Antiproliferative activity against human […] cells at 10 uM assessed as cell growth inhibition relative to control; conditions: values are per cent of control
U-251 [11] = assay: Antiproliferative activity against human U251 cells at 10 uM assessed as cell growth inhibition relative to control; conditions: values are per cent of control
SK-MEL-2 = assay: Antiproliferative activity against human SK-MEL-2 cells
NCI-H23 = assay: Antiproliferative activity against human NCI-H23 cells
NCI-H322M = assay: Antiproliferative activity against human NCI-H322M cells at 10 uM assessed as cell growth inhibition relative to control; conditions: values are per cent of control
KM12 = assay: Antiproliferative activity against human KM12 cells
786-0 [12] = assay: Antiproliferative activity against human 786-0 cells at 10 uM assessed as cell growth inhibition relative to control; conditions: values are per cent of control
CAKI-1 = assay: Antiproliferative activity against human Caki1 cells
NCI-H460 = assay: Antiproliferative activity against human NCI-H460 cells at 10 uM assessed as cell growth inhibition relative to control; conditions: values are per cent of control
HCT-116 [13] = assay: Antiproliferative activity against human HCT116 cells
MCF7 [14] = assay: Antiproliferative activity against human MCF7 cells
UO-31 = assay: Antiproliferative activity against human UO31 cells
TK-10 = assay: Antiproliferative activity against human TK10 cells at 10 uM assessed as cell growth inhibition relative to control; conditions: values are per cent of control
EKVX = assay: Antiproliferative activity against human EKVX cells
COLO 205 = assay: Antiproliferative activity against human COLO205 cells at 10 uM assessed as cell growth inhibition relative to control; conditions: values are per cent of control
OVCAR-8 [15] = assay: Antiproliferative activity against human OVCAR8 cells at 10 uM assessed as cell growth inhibition relative to control; conditions: values are per cent of control
SK-MEL-5 = assay: Antiproliferative activity against human SK-MEL-5 cells at 10 uM assessed as cell growth inhibition relative to control; conditions: values are per cent of control
SW-620 = assay: Antiproliferative activity against human SW620 cells at 10 uM assessed as cell growth inhibition relative to control; conditions: values are per cent of control
DU-145 = assay: Antiproliferative activity against human DU145 cells
SNB-19 [16] = assay: Antiproliferative activity against human SNB19 cells
A549 [17] = assay: Antiproliferative activity against human A549 cells at 10 uM assessed as cell growth inhibition relative to control; conditions: values are per cent of control
HOP-92 = assay: Antiproliferative activity against human HOP92 cells at 10 uM assessed as cell growth inhibition relative to control; conditions: values are per cent of control
UACC-62 [18] = assay: Antiproliferative activity against human UACC62 cells at 10 uM assessed as cell growth inhibition relative to control; conditions: values are per cent of control
CCRF-CEM = assay: Antiproliferative activity against human CCRF-CEM cells
SNB-19 [19] = assay: Antiproliferative activity against human SNB19 cells at 10 uM assessed as cell growth inhibition relative to control; conditions: values are per cent of control
[20] = Antiproliferative activity against human Hs 578T cells

Work on `CCOC(=O)C[C@H]1[C@@H](O[Si](C)(C)C(C)(C)C)[C@H](n2cnc3c(NC(=O)Nc4ccccc4)ncnc32)O[C@@H]1COC(=O)NC` yielded a growth, % of control at 10 µM (T47D [1]) of 29%, a growth, % of control at 10 µM (Malme-3M) of 54% and a growth, % of control at 10 µM (RXF 393) of 35%. The growth, % of control at 10 µM (HCT-15) was 52%, the growth, % of control at 10 µM (SN12C) was 35% and the growth, % of control at 10 µM (MCF7 [2]) was 12%. It also gave a GI50 (A549 [3]) of 6.93 µM, a GI50 (MOLT-4) of 1.99 µM and a GI50 (UACC-62 [4]) of 15.8 µM. It also gave a GI50 (786-0 [5]) of 7.94 µM, a GI50 (SNB-75) of 10.3 µM and a GI50 (OVCAR-8 [6]) of 10.3 µM. For the same compound, the GI50 (OVCAR-4) was 10.7 µM, the growth, % of control at 10 µM (M14) was 57% and the growth, % of control at 10 µM (MDA-MB-231) was 72%. It also gave a growth, % of control at 10 µM (ACHN) of 26%, a GI50 (U-251 [7]) of 7.57 µM and a growth, % of control at 10 µM (SK-OV-3) of 95%. For the same compound, the growth, % of control at 10 µM (HOP-62) was 77%, the GI50 (UACC-257) was 20.8 µM and the GI50 (SF-539) was 11.5 µM. The GI50 (BT-549) was 2.07 µM, the GI50 (T47D [8]) was 4.95 µM and the growth, % of control at 10 µM (NCI-H226) was 56%. It also gave a GI50 (A498) of 4.65 µM, a GI50 (MDA-MB-435) of 3.26 µM and a growth, % of control at 10 µM (HCT-116 [9]) of 17%. The growth, % of control at 10 µM [10] was 39%, the growth, % of control at 10 µM (U-251 [11]) was 52% and the GI50 (SK-MEL-2) was 13.2 µM. It also gave a GI50 (NCI-H23) of 12.9 µM, a growth, % of control at 10 µM (NCI-H322M) of 91% and a GI50 (KM12) of 3.21 µM. The growth, % of control at 10 µM (786-0 [12]) was 73%, the GI50 (CAKI-1) was 3.72 µM and the growth, % of control at 10 µM (NCI-H460) was 13%. For the same compound, the GI50 (HCT-116 [13]) was 2.33 µM, the GI50 (MCF7 [14]) was 3.37 µM and the GI50 (UO-31) was 5.7 µM. It also gave a growth, % of control at 10 µM (TK-10) of 88%, a GI50 (EKVX) of 3.39 µM and a growth, % of control at 10 µM (COLO 205) of 67%. For the same compound, the growth, % of control at 10 µM (OVCAR-8 [15]) was 74%, the growth, % of control at 10 µM (SK-MEL-5) was 24% and the growth, % of control at 10 µM (SW-620) was 72%. It also gave a GI50 (DU-145) of 5.21 µM, a GI50 (SNB-19 [16]) of 49.2 µM and a growth, % of control at 10 µM (A549 [17]) of 51%. It also gave a growth, % of control at 10 µM (HOP-92) of 62%, a growth, % of control at 10 µM (UACC-62 [18]) of 65% and a GI50 (CCRF-CEM) of 3.23 µM. For the same compound, the growth, % of control at 10 µM (SNB-19 [19]) was 99% and the GI50 [20] was 3.39 µM.
